Data as given in publication PMC10257182, “Discovery of senolytics using machine learning” (Nature Communications, 2023).
“And” between values parts separate entries of the source, which are not always exact repeats. Equal values may be shown once. Read-outs that look alike come from different tables or passages of the source.

Columns and labels:
Format in all cases: cell-based, human
[1] = system: senescent A549 cells (etoposide-induced); assay: Nuclei count senolytic assay, therapy-induced senescence (TIS) model, senescent cells; conditions: for % Cell Survival: senescence cells, single replicate
How it was run: (§1)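 A549 cells made senescent with 100 μM etoposide for 48 h then 3 days in normal media; non-senescent A549 as control. Cells were exposed for 72 h to a 10-point […] range (10 μM–10 nM) in triplicate, then fixed, Hoechst-stained and imaged for nuclei count.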

[2] = system: non-senescent control IMR90 ER:RAS cells; assay: Nuclei count (Hoechst, high content imaging) senolytic assay, OIS model, non-senescent control cells; conditions: Homo sapiens
How it was run: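 Compared non-senescent and senescent IMR90 ER:RAS cultures (senescence induced with 4-OHT at 100 nM final); cells seeded 24 h before dosing, then exposed 72 h to compounds, 10-point […] range 10 μM–10 nM, triplicate. Fixed, Hoechst-stained, nuclei counted by high-content imaging; drop versus untreated reflects cell death.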

[3] = system: non-senescent control A549 cells; assay: Nuclei count senolytic assay, TIS model, non-senescent control cells; conditions: for % Cell Survival: control cells, single replicate
How it was run: as §1

Question: Which viability at 10 µM ([1]; Homo sapiens, A549, log (dose) [M] -5, Senescent cells, mean, read-out: Mean % Cell Survival) does the source give for CO[C@H]1C[C@H](O[C@H]2CC[C@@]3(C)[C@H](CC[C@@H]4[C@@H]3CC[C@]3(C)[C@@H](C5=CC(=O)OC5)[C@@H](OC(C)=O)C[C@]43O)C2)O[C@@H](C)[C@@H]1O [Oleandrin, oleandrin] here?
Answer: 0.749%

Question: What about the viability at 4.68 µM ([1]; Homo sapiens, A549, log (dose) [M] -5.33, Senescent cells, mean, read-out: Mean % Cell Survival) of the same compound?
Answer: 1.57%

Question: And the viability at 2.19 µM ([1]; Homo sapiens, A549, log (dose) [M] -5.66, Senescent cells, mean, read-out: Mean % Cell Survival)?
Answer: 1.08%

Question: And the viability at 1 µM ([1]; Homo sapiens, A549, log (dose) [M] -6, Senescent cells, mean, read-out: Mean % Cell Survival)?
Answer: 1.7%

Question: And the viability at 0.468 µM ([1]; Homo sapiens, A549, log (dose) [M] -6.33, Senescent cells, mean, read-out: Mean % Cell Survival)?
Answer: 1.38%

Question: And the viability at 0.219 µM ([1]; Homo sapiens, A549, log (dose) [M] -6.66, Senescent cells, mean, read-out: Mean % Cell Survival)?
Answer: 2.19%

Question: What about the viability at 0.1 µM ([1]; Homo sapiens, A549, log (dose) [M] -7, Senescent cells, mean, read-out: Mean % Cell Survival) of the same compound?
Answer: 3.51%

Question: What about the viability at 0.0468 µM ([1]; Homo sapiens, A549, log (dose) [M] -7.33, Senescent cells, mean, read-out: Mean % Cell Survival) of the same compound?
Answer: 9.16%

Question: What about the viability at 0.0219 µM ([1]; Homo sapiens, A549, log (dose) [M] -7.66, Senescent cells, mean, read-out: Mean % Cell Survival) of the same compound?
Answer: 3.39%

Question: What about the viability at 0.01 µM ([1]; Homo sapiens, A549, log (dose) [M] -8, Senescent cells, mean, read-out: Mean % Cell Survival) of the same compound?
Answer: 26.8%

Question: And the IC50 ([1]; Homo sapiens, TIS model, etoposide-induced senescent A549, nuclei count, 72 h)?
Answer: 0.0054 µM

Question: And the “concentration at which a senolytic effect was reached” value ([1]; TIS A549, Hoechst labelling, marginal effect on normal cells)?
Answer: 10 nM

Question: And the “senolytic action (in words)” value ([1]; experimental screen, TIS senescent A549)?
Answer: strong senolytic action

Question: What about the “% Cell Survival” value ([1]; log (dose) [M] -5) of the same compound?
Answer: 1.111% and 0.1906% and 0.9453%

Question: And the “% Cell Survival” value ([1]; log (dose) [M] -5.33)?
Answer: 1.898% and 1.858% and 0.9453%

Question: And the “% Cell Survival” value ([1]; log (dose) [M] -5.66)?
Answer: 1.065% and 1.477% and 0.6965%

Question: And the “% Cell Survival” value ([1]; log (dose) [M] -6)?
Answer: 2.222% and 1.477% and 1.393%

Question: And the “% Cell Survival” value ([1]; log (dose) [M] -6.33)?
Answer: 1.806% and 1.286% and 1.045%

Question: And the “% Cell Survival” value ([1]; log (dose) [M] -6.66)?
Answer: 2.083% and 3.383% and 1.095%

Question: And the “% Cell Survival” value ([1]; log (dose) [M] -7)?
Answer: 3.194% and 5.908% and 1.443%

Question: What about the “% Cell Survival” value ([1]; log (dose) [M] -7.33) of the same compound?
Answer: 3.7037% and 20.1525% and 3.632%

Question: What about the “% Cell Survival” value ([1]; log (dose) [M] -7.66) of the same compound?
Answer: 6.2037% and 0.09528% and 3.8806%

Question: What about the “% Cell Survival” value ([1]; log (dose) [M] -8) of the same compound?
Answer: 34.3519% and 21.3435% and 24.6766%

Question: And the viability at 10 µM ([2]; IMR-90, 72 h, Control, log (dose) [M] -5, 72 h, mean n=3 (Fig 3C), read-out: Mean % Cell Survival)?
Answer: 15%

Question: And the viability at 4.677 µM ([2]; IMR-90, 72 h, Control, log (dose) [M] -5.33, 72 h, mean n=3 (Fig 3C), read-out: Mean % Cell Survival)?
Answer: 20%

Question: And the viability at 2.188 µM ([2]; IMR-90, 72 h, Control, log (dose) [M] -5.66, 72 h, mean n=3 (Fig 3C), read-out: Mean % Cell Survival)?
Answer: 20.5%

Question: What about the viability at 1 µM ([2]; IMR-90, 72 h, Control, log (dose) [M] -6, 72 h, mean n=3 (Fig 3C), read-out: Mean % Cell Survival) of the same compound?
Answer: 25.6%

Question: What about the viability at 0.4677 µM ([2]; IMR-90, 72 h, Control, log (dose) [M] -6.33, 72 h, mean n=3 (Fig 3C), read-out: Mean % Cell Survival) of the same compound?
Answer: 24.8%

Question: What about the viability at 0.2188 µM ([2]; IMR-90, 72 h, Control, log (dose) [M] -6.66, 72 h, mean n=3 (Fig 3C), read-out: Mean % Cell Survival) of the same compound?
Answer: 24.3%

Question: And the viability at 0.1 µM ([2]; IMR-90, 72 h, Control, log (dose) [M] -7, 72 h, mean n=3 (Fig 3C), read-out: Mean % Cell Survival)?
Answer: 34.7%

Question: And the viability at 0.04677 µM ([2]; IMR-90, 72 h, Control, log (dose) [M] -7.33, 72 h, mean n=3 (Fig 3C), read-out: Mean % Cell Survival)?
Answer: 53.1%

Question: What about the viability at 0.02188 µM ([2]; IMR-90, 72 h, Control, log (dose) [M] -7.66, 72 h, mean n=3 (Fig 3C), read-out: Mean % Cell Survival) of the same compound?
Answer: 80.8%

Question: What about the viability at 0.01 µM ([2]; IMR-90, 72 h, Control, log (dose) [M] -8, 72 h, mean n=3 (Fig 3C), read-out: Mean % Cell Survival) of the same compound?
Answer: 92.8%

Question: And the viability at 4.677 µM ([2]; IMR-90, control, log (dose) [M] -5.33, individual replicates (Fig 3D), read-out: % Cell Survival)?
Answer: 20.6%

Question: What about the viability at 2.188 µM ([2]; IMR-90, control, log (dose) [M] -5.66, individual replicates (Fig 3D), read-out: % Cell Survival) of the same compound?
Answer: 18.9%

Question: What about the viability at 1 µM ([2]; IMR-90, control, log (dose) [M] -6, individual replicates (Fig 3D), read-out: % Cell Survival) of the same compound?
Answer: 22.9%

Question: What about the viability at 0.4677 µM ([2]; IMR-90, control, log (dose) [M] -6.33, individual replicates (Fig 3D), read-out: % Cell Survival) of the same compound?
Answer: 19.9%

Question: What about the viability at 0.2188 µM ([2]; IMR-90, control, log (dose) [M] -6.66, individual replicates (Fig 3D), read-out: % Cell Survival) of the same compound?
Answer: 22.4%

Question: And the viability at 0.1 µM ([2]; IMR-90, control, log (dose) [M] -7, individual replicates (Fig 3D), read-out: % Cell Survival)?
Answer: 31.3%

Question: What about the viability at 0.04677 µM ([2]; IMR-90, control, log (dose) [M] -7.33, individual replicates (Fig 3D), read-out: % Cell Survival) of the same compound?
Answer: 54.6%

Question: And the viability at 0.02188 µM ([2]; IMR-90, control, log (dose) [M] -7.66, individual replicates (Fig 3D), read-out: % Cell Survival)?
Answer: 71%

Question: And the viability at 0.01 µM ([2]; IMR-90, control, log (dose) [M] -8, individual replicates (Fig 3D), read-out: % Cell Survival)?
Answer: 82.4%

Question: What about the IC50 ([2]; IMR-90, OIS model, non-senescent IMR90 ER:RAS, nuclei count, 72 h) of the same compound?
Answer: 0.085 µM

Question: And the viability at 10 µM ([3]; Homo sapiens, A549, log (dose) [M] -5, Control cells, mean, read-out: Mean % Cell Survival)?
Answer: 1.02%

Question: What about the viability at 4.68 µM ([3]; Homo sapiens, A549, log (dose) [M] -5.33, Control cells, mean, read-out: Mean % Cell Survival) of the same compound?
Answer: 1.71%

Question: What about the viability at 2.19 µM ([3]; Homo sapiens, A549, log (dose) [M] -5.66, Control cells, mean, read-out: Mean % Cell Survival) of the same compound?
Answer: 1.34%

Question: And the viability at 1 µM ([3]; Homo sapiens, A549, log (dose) [M] -6, Control cells, mean, read-out: Mean % Cell Survival)?
Answer: 1.19%

Question: What about the viability at 0.468 µM ([3]; Homo sapiens, A549, log (dose) [M] -6.33, Control cells, mean, read-out: Mean % Cell Survival) of the same compound?
Answer: 1.55%

Question: What about the viability at 0.219 µM ([3]; Homo sapiens, A549, log (dose) [M] -6.66, Control cells, mean, read-out: Mean % Cell Survival) of the same compound?
Answer: 2.98%

Question: And the viability at 0.1 µM ([3]; Homo sapiens, A549, log (dose) [M] -7, Control cells, mean, read-out: Mean % Cell Survival)?
Answer: 6.37%

Question: And the viability at 0.0468 µM ([3]; Homo sapiens, A549, log (dose) [M] -7.33, Control cells, mean, read-out: Mean % Cell Survival)?
Answer: 4.07%

Question: And the viability at 0.0219 µM ([3]; Homo sapiens, A549, log (dose) [M] -7.66, Control cells, mean, read-out: Mean % Cell Survival)?
Answer: 25.8%

Question: And the viability at 0.01 µM ([3]; Homo sapiens, A549, log (dose) [M] -8, Control cells, mean, read-out: Mean % Cell Survival)?
Answer: 34.2%

Question: And the IC50 ([3]; Homo sapiens, TIS model, non-senescent A549, nuclei count, 72 h)?
Answer: 0.0195 µM

Question: What about the “% Cell Survival” value ([3]; log (dose) [M] -5) of the same compound?
Answer: 0.2886% and 2.786% and 0%

Question: What about the “% Cell Survival” value ([3]; log (dose) [M] -5.33) of the same compound?
Answer: 1.948% and 1.5% and 1.695%

Question: And the “% Cell Survival” value ([3]; log (dose) [M] -5.66)?
Answer: 1.659% and 1.071% and 1.304%

Question: And the “% Cell Survival” value ([3]; log (dose) [M] -6)?
Answer: 0% and 2.071% and 1.499%

Question: What about the “% Cell Survival” value ([3]; log (dose) [M] -6.33) of the same compound?
Answer: 1.371% and 2.429% and 0.8475%

Question: And the “% Cell Survival” value ([3]; log (dose) [M] -6.66)?
Answer: 4.113% and 2.929% and 1.89%

Question: What about the “% Cell Survival” value ([3]; log (dose) [M] -7) of the same compound?
Answer: 5.267% and 9.857% and 3.977%

Question: And the “% Cell Survival” value ([3]; log (dose) [M] -7.33)?
Answer: 0% and 0.07143% and 12.1252%

Question: And the “% Cell Survival” value ([3]; log (dose) [M] -7.66)?
Answer: 49.3506% and 28.0313%

Question: And the “% Cell Survival” value ([3]; log (dose) [M] -8)?
Answer: 102.742%
